The results in this text go back to ChEMBL document CHEMBL4665812, “Targeting Her2-insYVMA with Covalent Inhibitors-A Focused Compound Screening and Structure-Based Design Approach” (J Med Chem, 2020).

pIC50: −log10 of the molar value. Converted amounts (≈) assume the structure as drawn. A value given as a limit tells only on which side of the number the result lay.

Data set [1] can be described thus: Inhibition of HER2-A775_G776insYVMA mutant (unknown origin) expressed in mouse BaF3 cells assessed as reduction in HER2 induced cell viability after 96 hrs by CellTiter-Glo assay. The following applies: BaF3, 96 h. Type of data set: cell-based.
The nature of a further data set: cells. Type of data set: cell-based. The settings on record: Homo sapiens, NCI-H1781, 96 h.
For data set [2], the target named is Receptor tyrosine-protein kinase erbB-2 (Homo sapiens, UniProt P04626). Description: Inhibition of C-terminal His6-tagged HER2 (703 to 1029 residues) (unknown origin) expressed in Sf9 insect cells using TK as substrate preincubated for 30 mins followed by substrate addition and measured after 60 mins in presence of XL665-labeled streptavidin by HTRF assay.
Receptor tyrosine-protein kinase erbB-2, sequence (P04626 whole entry, the tested form may be a part): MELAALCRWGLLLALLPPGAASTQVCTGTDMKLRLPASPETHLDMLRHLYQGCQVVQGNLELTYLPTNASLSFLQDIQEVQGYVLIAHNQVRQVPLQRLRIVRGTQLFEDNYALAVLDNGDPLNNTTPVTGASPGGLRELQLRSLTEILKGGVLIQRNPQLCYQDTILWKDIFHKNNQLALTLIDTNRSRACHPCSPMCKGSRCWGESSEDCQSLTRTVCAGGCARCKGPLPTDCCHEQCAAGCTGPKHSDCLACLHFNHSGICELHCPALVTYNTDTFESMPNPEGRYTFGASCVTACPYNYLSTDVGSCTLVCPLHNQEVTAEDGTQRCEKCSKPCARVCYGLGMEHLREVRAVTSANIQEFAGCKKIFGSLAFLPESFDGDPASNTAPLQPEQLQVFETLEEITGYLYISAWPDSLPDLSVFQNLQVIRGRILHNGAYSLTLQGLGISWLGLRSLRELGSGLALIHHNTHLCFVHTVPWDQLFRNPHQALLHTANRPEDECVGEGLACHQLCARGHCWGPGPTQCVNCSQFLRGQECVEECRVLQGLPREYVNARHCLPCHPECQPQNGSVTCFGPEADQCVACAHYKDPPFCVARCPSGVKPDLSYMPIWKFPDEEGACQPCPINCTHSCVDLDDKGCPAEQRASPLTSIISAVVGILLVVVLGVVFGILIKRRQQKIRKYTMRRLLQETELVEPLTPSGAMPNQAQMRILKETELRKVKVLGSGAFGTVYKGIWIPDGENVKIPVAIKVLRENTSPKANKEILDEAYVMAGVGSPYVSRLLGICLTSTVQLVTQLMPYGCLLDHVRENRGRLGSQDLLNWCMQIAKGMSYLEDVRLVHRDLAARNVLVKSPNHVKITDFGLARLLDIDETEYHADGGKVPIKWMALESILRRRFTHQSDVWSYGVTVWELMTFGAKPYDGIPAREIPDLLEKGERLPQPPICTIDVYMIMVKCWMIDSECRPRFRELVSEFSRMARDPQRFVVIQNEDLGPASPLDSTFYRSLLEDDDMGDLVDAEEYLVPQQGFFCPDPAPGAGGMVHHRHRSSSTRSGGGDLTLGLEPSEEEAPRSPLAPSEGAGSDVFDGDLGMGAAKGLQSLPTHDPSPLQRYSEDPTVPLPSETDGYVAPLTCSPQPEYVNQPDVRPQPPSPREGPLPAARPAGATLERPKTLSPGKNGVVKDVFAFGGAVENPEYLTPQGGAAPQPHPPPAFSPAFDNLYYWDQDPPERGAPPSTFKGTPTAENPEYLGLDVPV
The nature of data set [3]: Apparent permeability across apical side to basolateral side in human Caco-2 cells at 5 uM after 2 hrs by transwell assay. The settings on record: read-out: permeability. Type of data set: ADME, cell-based. Background: Passage across Caco-2 layers is used to estimate intestinal permeability.
Data set [4] can be described thus: Apparent permeability across basolateral side to apical side in human Caco-2 cells at 5 uM after 2 hrs by transwell assay. Format: ADME, cell-based. The following applies: read-out: permeability.
A short description of data set [5]: Stability of compound in mouse plasma assessed as parent compound remaining at 5 uM measured for 1 hr by LC-MS analysis. Format: ADME, cell-free. The settings on record: for remaining at 1 h, 5 µM: read-out: Stabilty.
Data set [6] in a line: Intrinsic clearance in mouse liver microsomes at 3 uM measured up to 60 mins by LC-MS analysis. The settings on record: read-out: CLH. Format: ADME, Microsome. (In general: Liver microsomes are vesicles of endoplasmic reticulum, rich in cytochrome P450 enzymes.)
Data set [7] in a line: Intrinsic clearance in human liver microsomes at 3 uM measured up to 50 mins by LC-MS analysis. The following applies: read-out: CLH. Type of data set: ADME, Microsome.
A short description of data set [8]: Stability of compound in human plasma assessed as parent compound remaining at 5 uM measured for 1 hr by LC-MS analysis. Format: ADME, cell-free. The following applies: read-out: Stabilty.
Data set [9] can be described thus: Kinetic solubility of compound in HEPES buffer a pH 7.4 at 500 uM after 90 mins. The settings on record: read-out: Kinetic_solubility. Format: physicochemical.
Data set [10] can be described thus: Ratio of apparent permeability across basolateral to apical over apical to basolateral side in human Caco2 cells at 5 uM after 2 hrs by transwell assay. Type of data set: ADME, cell-based. The settings on record: Caco-2.
Data set [11] in a line: Solubility of compound in aqueous buffer at pH 7.4 after 120 mins by turbidometric assay. Type of data set: physicochemical.

Description for cells: Inhibition of HER2-G776delinsVC mutant (unknown origin) expressed in human H1781 cells assessed as reduction in HER2 induced cell viability after 96 hrs by CellTiter-Glo assay

Take `C=CC(=O)Nc1cccc(-c2c[nH]c3ncnc(Nc4ccc5c(ccn5Cc5ccccc5)c4)c23)c1`: the pIC50 (in general, the negative decadic logarithm of the IC50, by convention in mol/L) in data set [1] was 6.52; in “cells” it was 6.48; in [2], 8.10.

Consider `C=CC(=O)Nc1cc(-c2c[nH]c3ncnc(Nc4ccc(OCc5ccccn5)c(Cl)c4)c23)ccc1OC(C)COC` (configuration not stated), for which the pIC50 in [1] was 6.59; in the data set “cells”, 6.26; in data set [2] it was 7.85.

For `C=CC(=O)Nc1cccc(-c2c(-c3ccc(N4CCN(C)CC4)cc3)[nH]c3ncnc(OC)c23)c1`, the pIC50 is 6.04 in [1], 6.45 in the data set “cells” and 7.30 in data set [2].

For the compound `C=CC(=O)Nc1cc(-c2c[nH]c3ncnc(Nc4ccc(OCc5ccccn5)c(Cl)c4)c23)ccc1OCCCO`, the pIC50 in data set [1] was 7.39; in the data set “cells”, 6.57; in data set [2], 8.03.

As to `COc1cc2ncnc(Nc3ccc(F)c(Cl)c3)c2cc1OCCCN1CCOCC1` [GEFITINIB], the pIC50 in data set [1] is 5.54.

On to `C=CC(=O)Nc1cccc(-c2c(-c3ccc(N4CCN(C)CC4)cc3)[nH]c3ncnc(Nc4ccc(O)cc4)c23)c1`, for which the pIC50 is 6.37 in [1], 6.78 in “cells” and 8.41 in [2].

For the compound `C=CC(=O)Nc1cccc(-c2c[nH]c3ncnc(Nc4ccc(OCc5cccc(F)c5)c(Cl)c4)c23)c1`, the negative logarithm of the IC50 (pIC50) in data set [1] is 6.87; in “cells” it was 6.52; in [2] it was 7.85.

With `CN(C)C/C=C/C(=O)Nc1cc2c(Nc3ccc(F)c(Cl)c3)ncnc2cc1O[C@H]1CCOC1` [AFATINIB], the Papp A→B at 2 h, 5 µM in data set [3] is 2.38 ×10⁻⁶ cm/s. For the same compound, in [4], the Papp B→A at 2 h, 5 µM is 55.4 ×10⁻⁶ cm/s. The remaining at 1 h, 5 µM is 101% in data set [5] and 96.5% in data set [8]. Besides, the microsomal CLint at 3 µM is 9.4 µL/min/mg in data set [6] and 1.4 µL/min/mg in data set [7].

On to `C=CC(=O)Nc1cccc(-c2c(-c3ccc(N4CCN(C)CC4)cc3)[nH]c3ncnc(OCC)c23)c1`, for which the values for the pIC50 (in data set [1]; in the data set “cells”; in data set [2]) were 6.49, 6.38 and 7.85, respectively.

With `C=CC(=O)Nc1cccc(-c2c(-c3ccc(N4CCN(C)CC4)cc3)[nH]c3ncnc(Nc4ccc(CN5C(=O)c6ccccc6C5=O)cc4)c23)c1`, the pIC50 in data set [1] was 6.20; in the data set “cells”, 6.31; in data set [2] it was 7.26.

On to `C=CC(=O)Nc1cccc(-c2c(-c3ccc(N4CCN(C)CC4)cc3)[nH]c3ncnc(Nc4ccc(OCc5cccc(F)c5)c(Cl)c4)c23)c1`, for which the pIC50 in data set [1] was 5.65; in “cells”, below 4.52; in data set [2], 7.02.

`C=CC(=O)Nc1cccc(-c2c[nH]c3ncnc(Nc4ccc(OCN5C(=O)c6ccccc6C5=O)cc4)c23)c1`: the pIC50 in [1] is 6.25; in “cells” it was 6.42; in data set [2], 8.35.

Regarding `C=CC(=O)Nc1cc(-c2c[nH]c3ncnc(Nc4ccc5[nH]c(Cc6ccccc6)nc5c4)c23)ccc1OCCO`, the values for the pIC50 (in data set [1]; in the data set “cells”; in [2]) were below 5.52, below 5.52 and 6.73, respectively.

Consider `C=CC(=O)Nc1cccc(-c2c(-c3ccc(N4CCN(C)CC4)cc3)[nH]c3ncnc(OCC(C)C)c23)c1`, for which the pIC50 is 5.95 in [1], 5.64 in “cells” and 7.59 in [2].

`C=CC(=O)Nc1cccc(-c2c[nH]c3ncnc(Nc4ccc5c(cnn5Cc5ccccc5)c4)c23)c1`: the values for the negative-log IC50 (pIC50) (in data set [1]; in “cells”; in [2]) were 7.28, 6.90 and 7.92, respectively.

Regarding `C=CC(=O)Nc1cccc(-c2c(-c3ccc(N4CCN(C)CC4)cc3)[nH]c3ncnc(Nc4ccc(OCN5C(=O)c6ccccc6C5=O)cc4)c23)c1`, the values for the pIC50 (in [1]; in the data set “cells”; in data set [2]) were 6.39, 6.58 and 7.92, respectively.

As for `C=CC(=O)N1CCC(Oc2cc3c(Nc4ccc(Cl)c(Cl)c4F)ncnc3cc2OC)CC1` [POZIOTINIB], the solubility kinetic at 1.5 h, 500 µM in data set [9] was found to be 39.3 µM (≈ 19.3 µg/mL). The efflux ratio – broadly, a quotient of directional permeabilities that is used to spot active efflux – at 2 h, 5 µM in [10] was determined as 0.36. Moreover, the Papp A→B at 2 h, 5 µM in [3] is 21.1 ×10⁻⁶ cm/s. Besides, the pIC50 in data set [1] was above 7.85; in the data set “cells” it was 6.98; in data set [2] it was 7.92. Further, in data set [4], the Papp B→A at 2 h, 5 µM was 7.5 ×10⁻⁶ cm/s. For the same compound, the Stabilty in data set [5] (1 h, 5 µM) came to 120.4%. In addition, the microsomal CLint at 3 µM amounted to 35.4 µL/min/mg in [6] and 22 µL/min/mg in data set [7]. Further, the remaining at 1 h, 5 µM in [8] turned out to be 86.9%.

`CC(C)(O)CC(=O)NCCn1ccc2ncnc(Nc3ccc(Oc4cccc(C(F)(F)F)c4)c(Cl)c3)c21` [TAK-285]: the figures for the pIC50 (in data set [1]; in the data set “cells”) were 5.49 and 5.40, respectively.

As for `C=CC(=O)Nc1cccc(-c2c[nH]c3ncnc(Nc4ccc(OC(c5ccccc5)c5ccccc5)cc4)c23)c1`, the pIC50 in data set [1] was 6.30; in the data set “cells” it was 5.19; in [2] it was 7.59.

As for `C=CC(=O)Nc1cccc(-c2c[nH]c3ncnc(Nc4ccc(Oc5ccccc5)cc4)c23)c1`, the values for the pIC50 (in data set [1]; in the data set “cells”; in [2]) were below 5.52, below 5.52 and 7.89, respectively.

Turning to `C=CC(=O)Nc1cccc(-c2c(-c3ccc(N4CCN(C)CC4)cc3)[nH]c3ncnc(Nc4ccc(OC(c5ccccc5)c5ccccc5)cc4)c23)c1`, the figures for the pIC50 (in [1]; in the data set “cells”; in [2]) were below 5.52, 5.58 and 8.35, respectively.

Regarding `C=CC(=O)Nc1cc(-c2c[nH]c3ncnc(Nc4ccc(OCc5ccccn5)c(Cl)c4)c23)ccc1OCCO`, the pIC50 is 7.08 in data set [1], 6.70 in the data set “cells” and 8.72 in [2].

On to `C=CC(=O)Nc1cccc(-c2c(-c3ccc(N4CCN(C)CC4)cc3)[nH]c3ncnc(Nc4ccc(OCc5ccccn5)c(Cl)c4)c23)c1`, for which the pIC50 is 6.55 in data set [1], 6.60 in the data set “cells” and 7.85 in data set [2].

`C=CC(=O)Nc1cc(-c2c[nH]c3ncnc(Nc4ccc(CN5C(=O)c6ccccc6C5=O)cc4)c23)ccc1OCCO`: the pIC50 was 6.17 in data set [1], 5.79 in the data set “cells” and 7.82 in [2].

For `C=CC(=O)Nc1cccc(-c2c(-c3ccc(N4CCN(C)CC4)cc3)[nH]c3ncnc(Nc4ccc(OC(=O)C(c5ccccc5)N5Cc6ccccc6C5=O)cc4)c23)c1` (configuration not stated), the pIC50 in data set [1] was 6.41; in the data set “cells”, 6.48; in data set [2] it was 7.89.

Take `C=CC(=O)Nc1cccc(-c2c(-c3ccc(N4CCN(C)CC4)cc3)[nH]c3ncnc(Nc4ccc(NC(=O)C(c5ccccc5)N5Cc6ccccc6C5=O)cc4)c23)c1` (configuration not stated): the pIC50 was 5.57 in [1], 6.16 in “cells” and 7.37 in [2].

`C=CC(=O)Nc1cccc(-c2c(-c3ccc(N4CCN(C)CC4)cc3)[nH]c3ncn(CC(C)C)c(=O)c23)c1`: the pIC50 in data set [1] was 5.62; in “cells” it was 6.01; in data set [2], 6.49.

As for `C=CC(=O)Nc1cccc(-c2c[nH]c3ncnc(Nc4ccc5[nH]c(Cc6ccccc6)nc5c4)c23)c1`, the pIC50 in data set [1] is 6.46; in “cells”, 6.71; in data set [2] it was 8.46.

As for `C=CC(=O)Nc1cc(Nc2nccc(-c3cn(C)c4ccccc34)n2)c(OC)cc1N(C)CCN(C)C` [OSIMERTINIB], the pIC50 in data set [1] was 5.86; in “cells”, 6.09.

On to `C=CC(=O)Nc1cccc(-c2c[nH]c3ncnc(Nc4ccc(Cc5ccccc5)cc4)c23)c1`, for which the pIC50 was 6.12 in data set [1], below 5.52 in the data set “cells” and 7.54 in [2].

Consider `C=CC(=O)Nc1cccc(-c2c(-c3ccc(N4CCN(C)CC4)cc3)[nH]c3ncn(CC)c(=O)c23)c1`, for which the pIC50 in data set [1] is 5.55; in the data set “cells”, 5.63; in data set [2], 7.08.

Consider `C=CC(=O)Nc1cccc(-c2c(-c3ccc(N4CCN(C)CC4)cc3)[nH]c3ncnc(OC(C)C)c23)c1`, for which the negative logarithm of the IC50 (pIC50) in data set [1] was 5.84; in “cells”, 5.93; in data set [2], 7.68.

On to `C=CC(=O)Nc1cc(-c2c[nH]c3ncnc(Nc4ccc(CN5C(=O)c6ccccc6C5=O)cc4)c23)ccc1OCCN(C)C`, for which the pIC50 in [1] is 6.21; in the data set “cells”, 5.92; in data set [2] it was 7.64.

Consider `C=CC(=O)Nc1cccc(-c2c(-c3ccc(N4CCN(C)CC4)cc3)[nH]c3ncn(C(C)C)c(=O)c23)c1`, for which the pIC50 in data set [1] is 5.44; in the data set “cells”, 5.69; in data set [2], 6.23.

Consider `C=CC(=O)Nc1cccc(-c2c(-c3ccc(N4CCN(C)CC4)cc3)[nH]c3ncn(C)c(=O)c23)c1`, for which the pIC50 in [1] was 5.48; in the data set “cells” it was 5.91; in data set [2], 6.84.

For `CS(=O)(=O)CCNCc1ccc(-c2ccc3ncnc(Nc4ccc(OCc5cccc(F)c5)c(Cl)c4)c3c2)o1` [LAPATINIB], in [9], the solubility kinetic at 1.5 h, 500 µM was 4.1 µM (≈ 2.38 µg/mL). The compound further showed a solubility kinetic at 2 h in data set [11] of 3 µM (≈ 1.74 µg/mL). For the same compound, the Papp A→B at 2 h, 5 µM in data set [3] turned out to be 0.7 ×10⁻⁶ cm/s. The pIC50 in data set [1] is 5.56; in the data set “cells”, 5.40. Moreover, the Papp B→A at 2 h, 5 µM in [4] was 0.2 ×10⁻⁶ cm/s. Also, the remaining at 1 h, 5 µM in data set [5] amounted to 95.9%; in [8], 99.7%. The microsomal CLint at 3 µM in data set [6] worked out at 73.7 µL/min/mg; in [7] it was 16.7 µL/min/mg.
